From US20120088759A1, “THIAZOLIDIN-4-ONE AND [1,3]-THIAZINAN-4-ONE COMPOUNDS AS OREXIN RECEPTOR ANTAGONISTS” (priority 2009, published 2012)

Assays:
[1] = biological target: T1, human orexin-1 receptor (Homo sapiens, UniProt O43613); test: FLIPR intracellular calcium assay, orexin receptor antagonistic activity (OX1); type: cell-based; details: CHO cells expressing human orexin-1 receptor; 3 nM orexin-A; normalized to on-plate reference; *n = geometric mean from n values
T1 construct: expressed in transfected cells; host or cells: CHO (Chinese hamster ovary) cells, kept under G418
T1 sequence (O43613 1-425): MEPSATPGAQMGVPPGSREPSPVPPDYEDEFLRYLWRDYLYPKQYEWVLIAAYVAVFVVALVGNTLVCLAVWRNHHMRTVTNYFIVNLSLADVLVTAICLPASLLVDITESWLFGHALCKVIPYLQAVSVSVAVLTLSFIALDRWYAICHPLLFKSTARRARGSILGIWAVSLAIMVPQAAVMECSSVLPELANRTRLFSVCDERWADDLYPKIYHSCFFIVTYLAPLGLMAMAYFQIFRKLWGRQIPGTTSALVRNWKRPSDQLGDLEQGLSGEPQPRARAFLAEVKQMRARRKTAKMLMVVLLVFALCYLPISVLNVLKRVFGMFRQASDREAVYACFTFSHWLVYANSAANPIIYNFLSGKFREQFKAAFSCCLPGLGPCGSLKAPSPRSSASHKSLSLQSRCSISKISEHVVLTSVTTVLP
Protocol: (§1) The orexin receptor antagonistic activity of the compounds of formula (I) is determined in accordance with the following experimental method.
(§2) Chinese hamster ovary (CHO) cells expressing the human orexin-1 receptor and the human orexin-2 receptor, respectively, are grown in culture medium (Ham F-12 with L-Glutamine) containing 300 μg/ml G418, 100 U/ml penicillin, 100 μg/ml streptomycin and 10% heat inactivated fetal calf serum (FCS). The cells are seeded at 20′000 cells/well into 384-well black clear bottom sterile plates (Greiner). The seeded plates are incubated overnight at 37° C. in 5% CO2.
(§3) Human orexin-A as an agonist is prepared as 1 mM stock solution in MeOH:water (1:1), diluted in HBSS containing 0.1% bovine serum albumin (BSA), NaHCO3: 0.375 g/l and 20 mM HEPES for use in the assay at a final concentration of 3 nM.
(§4) Antagonists are prepared as 10 mM stock solution in DMSO, then diluted in 384-well plates using DMSO followed by a transfer of the dilutions into in HBSS containing 0.1% bovine serum albumin (BSA), NaHCO3: 0.375 g/l and 20 mM HEPES. On the day of the assay, 50 μl of staining buffer (HBSS containing 1% FCS, 20 mM HEPES, NaHCO3: 0.375 g/l, 5 mM probenecid (Sigma) and 3 μM of the fluorescent calcium indicator fluo-4 AM (1 mM stock solution in DMSO, containing 10% pluronic) is added to each well. The 384-well cell-plates are incubated for 50 min at 37° C. in 5% CO2 followed by equilibration at rt for 30-120 min before measurement.
(§5) Within the Fluorescent Imaging Plate Reader (FLIPR Tetra, Molecular Devices), antagonists are added to the plate in a volume of 10 μl/well, incubated for 10 min and finally 10 μl/well of agonist is added. Fluorescence is measured for each well at 1 second intervals, and the height of each fluorescence peak is compared to the height of the fluorescence peak induced by 3 nM orexin-A with vehicle in place of antagonist. For each antagonist, the IC50 value (the concentration of compound needed to inhibit 50% of the agonistic response) is determined and normalized using the obtained IC50 value of a on-plate reference compound. Optimized conditions were achieved by adjustment of pipetting speed and cell splitting regime. The calculated IC50 values of the compounds may fluctuate depending on the daily cellular assay performance. Fluctuations of this kind are known to those skilled in the art.

[2] = biological target: T2, human orexin-2 receptor (Homo sapiens, UniProt O43614); test: FLIPR intracellular calcium assay, orexin receptor antagonistic activity (OX2); type: cell-based; details: CHO cells expressing human orexin-2 receptor; 3 nM orexin-A; normalized to on-plate reference; *n = geometric mean from n values
T2 construct: expressed in transfected cells; host or cells: CHO (Chinese hamster ovary) cells, kept under G418
T2 sequence (O43614 1-444): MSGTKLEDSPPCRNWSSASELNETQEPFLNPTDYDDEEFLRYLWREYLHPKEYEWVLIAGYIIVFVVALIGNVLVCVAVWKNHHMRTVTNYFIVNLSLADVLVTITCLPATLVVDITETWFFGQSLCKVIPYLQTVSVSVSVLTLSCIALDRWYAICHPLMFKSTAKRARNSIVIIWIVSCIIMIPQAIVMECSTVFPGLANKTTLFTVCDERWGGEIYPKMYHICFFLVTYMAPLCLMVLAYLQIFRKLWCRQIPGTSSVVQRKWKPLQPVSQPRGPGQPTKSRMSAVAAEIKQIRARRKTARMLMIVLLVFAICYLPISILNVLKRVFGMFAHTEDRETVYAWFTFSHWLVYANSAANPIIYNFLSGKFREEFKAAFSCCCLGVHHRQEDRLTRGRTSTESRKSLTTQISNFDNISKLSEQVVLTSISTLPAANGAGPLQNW
Protocol: as §1, §2, §3, §4, §5

Row | Compound | IC50 [1] [nM] | IC50 [2] [nM]
1 | 2-[2-(2-Hydroxy-ethoxy)-6-methoxy-phenyl]-3-(4-trifluoromethoxy-benzyl)-thiazolidin-4-one [Example 268] | 1840 | 45
2 | COc1cccc(OC)c1C1SCC(=O)N1Cc1ccc(Oc2ccc(C)cn2)cc1 (stereo not drawn) [Example 281, 2-(2,6-Dimethoxy-phenyl)-3-[4-(5-methyl-pyridin-2-yloxy)-benzyl]-thiazolidin-4-one] | 781 | 61
3 | COc1ccc2cc(CN3C(=O)CSC3c3c(OC)cccc3OC)ccc2c1 (stereo not drawn) [Example 32, 2-(2,6-Dimethoxy-phenyl)-3-(6-methoxy-naphthalen-2-ylmethyl)-thiazolidin-4-one] | 15 | 6
4 | COc1cccc(OC)c1C1N(Cc2ccc(OC(F)(F)F)cc2)C(=O)CS1(=O)=O (stereo not drawn) [Example 288, 2-(2,6-Dimethoxy-phenyl)-1,1-dioxo-3-(4-trifluoromethoxy-benzyl)-thiazolidin-4-one] | 166 | 6
5 | COc1cccc(OC)c1C1SCC(=O)N1Cc1ccc(Oc2cccnc2)cc1 (stereo not drawn) [Example 278, 2-(2,6-Dimethoxy-phenyl)-3-[4-(pyridin-3-yloxy)-benzyl]-thiazolidin-4-one] | 1030 | 10
6 | CCOc1ccc(CN2C(=O)CSC2c2c(OC)ccc3c(C)noc23)cc1 (stereo not drawn) [Example 19, 3-(4-Ethoxy-benzyl)-2-(6-methoxy-3-methyl-benzo[d]isoxazol-7-yl)-thiazolidin-4-one] | 8120 | 153
7 | COc1cccc(OC)c1C1SCC(=O)N1Cc1cccc(OC(F)(F)F)c1 (stereo not drawn) [Example 119, 2-(2,6-Dimethoxy-phenyl)-3-(3-trifluoromethoxy-benzyl)-thiazolidin-4-one] | 355 | 61
8 | COc1cccc(OC)c1C1SCC(=O)N1Cc1ccc(OC(F)F)cc1 (stereo not drawn) [Example 4, 3-(4-Difluoromethoxy-benzyl)-2-(2,6-dimethoxy-phenyl)-thiazolidin-4-one] | 377 | 27
9 | COc1ccc(CN2C(=O)CSC2c2c(OC)cccc2OC)cc1 (stereo not drawn) [Example 1, 2-(2,6-Dimethoxy-phenyl)-3-(4-methoxy-benzyl)-thiazolidin-4-one] | 309 | 104
10 | COc1ccc2c(c1C1SCC(=O)N1Cc1ccc(OC(F)(F)F)cc1)OCCO2 (stereo not drawn) [Example 10, 2-(6-Methoxy-2,3-dihydro-benzo[1,4]dioxin-5-yl)-3-(4-trifluoromethoxy-benzyl)-thiazolidin-4-one] | 144 | 16
11 | COc1cccc(OC)c1C1SCC(=O)N1Cc1ccc(OC(C)(C)C)cc1 (stereo not drawn) [Example 3, 3-(4-tert-Butoxy-benzyl)-2-(2,6-dimethoxy-phenyl)-thiazolidin-4-one] | 1420 | 120
12 | COc1cc(C)cc(OC)c1C1SC(C)C(=O)N1Cc1ccc(OC(F)(F)F)cc1 (stereo not drawn) [Example 35, 2-(2,6-Dimethoxy-4-methyl-phenyl)-5-methyl-3-(4-trifluoromethoxy-benzyl)-thiazolidin-4-one] | 170 | 130
13 | COc1cccc(Oc2ccc(CN3C(=O)CSC3c3c(OC)cccc3OC)cc2)n1 (stereo not drawn) [Example 282, 2-(2,6-Dimethoxy-phenyl)-3-[4-(6-methoxy-pyridin-2-yloxy)-benzyl]-thiazolidin-4-one] | 1950 | 127
14 | COc1cccc(OC)c1C1SC(C)C(=O)N1Cc1ccc2ccccc2c1 (stereo not drawn) [Example 14, 2-(2,6-Dimethoxy-phenyl)-5-methyl-3-naphthalen-2-ylmethyl-thiazolidin-4-one] | 31 | 44
15 | COc1ccc(Oc2ccc(CN3C(=O)CSC3c3c(OC)cccc3OC)cc2)nc1 (stereo not drawn) [Example 286, 2-(2,6-Dimethoxy-phenyl)-3-[4-(5-methoxy-pyridin-2-yloxy)-benzyl]-thiazolidin-4-one] | 553 | 52
16 | COc1cccc(OC)c1C1SCC(=O)N1Cc1ccc(Oc2cnccn2)cc1 (stereo not drawn) [Example 279, 2-(2,6-Dimethoxy-phenyl)-3-[4-(pyrazin-2-yloxy)-benzyl]-thiazolidin-4-one] | 1420 | 32
17 | COc1cccc(OC)c1C1SCC(=O)N1Cc1ccc(Oc2cccc(C)n2)cc1 (stereo not drawn) [Example 283, 2-(2,6-Dimethoxy-phenyl)-3-[4-(6-methyl-pyridin-2-yloxy)-benzyl]-thiazolidin-4-one] | 942 | 51
18 | COc1cccc(OC)c1C1SC(C)C(=O)N1Cc1ccc(OC(F)(F)F)cc1 (stereo not drawn) [Example 17, 2-(2,6-Dimethoxy-phenyl)-5-methyl-3-(4-trifluoromethoxy-benzyl)-thiazolidin-4-one] | 363 | 15
19 | COc1cccc(OC)c1C1SCC(=O)N1Cc1ccc2ccccc2n1 (stereo not drawn) [Example 27, 2-(2,6-Dimethoxy-phenyl)-3-quinolin-2-ylmethyl-thiazolidin-4-one] | 154 | 18
20 | CCOc1ccc(CN2C(=O)CSC2c2c(OC)ccc3nc(C)oc23)cc1 (stereo not drawn) [Example 20, 3-(4-Ethoxy-benzyl)-2-(6-methoxy-2-methyl-benzooxazol-7-yl)-thiazolidin-4-one] | 1560 | 342
21 | CCOc1ccc(CN2C(=O)CSC2c2c(OC)ccc3c2OCCO3)cc1 (stereo not drawn) [Example 9, 3-(4-Ethoxy-benzyl)-2-(6-methoxy-2,3-dihydro-benzo[1,4]dioxin-5-yl)-thiazolidin-4-one] | 326 | 39
22 | COc1cccc(OC)c1C1SCC(=O)N1Cc1ccc(OCC(F)(F)F)cc1 (stereo not drawn) [Example 18, 2-(2,6-Dimethoxy-phenyl)-3-[4-(2,2,2-trifluoro-ethoxy)-benzyl]-thiazolidin-4-one] | 323 | 10
23 | CCOc1ccc(CN2C(=O)CSC2c2c(OC)ccc3cccnc23)cc1 (stereo not drawn) [Example 21, 3-(4-Ethoxy-benzyl)-2-(7-methoxy-quinolin-8-yl)-thiazolidin-4-one] | 1450 | 60
24 | COc1ccc2c(C)noc2c1C1SCC(=O)N1Cc1ccc(OC(F)(F)F)cc1 (stereo not drawn) [Example 22, 2-(6-Methoxy-3-methyl-benzo[d]isoxazol-7-yl)-3-(4-trifluoromethoxy-benzyl)-thiazolidin-4-one] | 2360 | 19
25 | COc1cccc(OC)c1C1SCC(=O)N1Cc1ccc(Oc2ccc(C)nn2)cc1 (stereo not drawn) [Example 280, 2-(2,6-Dimethoxy-phenyl)-3-[4-(6-methyl-pyridazin-3-yloxy)-benzyl]-thiazolidin-4-one] | 1740 | 121
26 | CCOc1ccc(CN2C(=O)C(C)(C)SC2c2c(OC)cccc2OC)cc1 (stereo not drawn) [Example 175, 2-(2,6-Dimethoxy-phenyl)-3-(4-ethoxy-benzyl)-5,5-dimethyl-thiazolidin-4-one] | 86 | 663
27 | COc1cc(C)cc(OC)c1C1SCC(=O)N1Cc1ccc(OC(F)(F)F)cc1 (stereo not drawn) [Example 34, 2-(2,6-Dimethoxy-4-methyl-phenyl)-3-(4-trifluoromethoxy-benzyl)-thiazolidin-4-one] | 107 | 28
